Where “and” joins values, the source holds several entries; their conditions need not be identical. Equal values may be shown once. Non-standard residues stand in square brackets, D forms with d. Residues, ends and D or L forms follow the SMILES beside them. pS = N[C@@H](COP(=O)(O)O)C(=O)O

We go through 1 compound from patent US20210308211A1, “METHOD OF TREATING VIRAL INFECTIONS” (priority 2020, published 2021).

The test system of one test is Balb/c mice. The test can be described thus: 31-day HDM-induced asthma model, airway response to methacholine (Flexivent). In kind it is in vivo, mouse. Conditions: for Crs / Ers / Rrs: per mouse. As to the method:
The aim of this study was to evaluate the effect of the P140 phosphopeptide administered systemically (intravenously) in a 31-day model of HDM-induced asthma in mice. The P140 phosphopeptide was solubilized in sterile water (Braun) and 10x concentrate sterile saline was added to adjust osmolarity to 300 mosm. Osmolarity was controlled with a micro osmometer (Löser, type 15) and validated (303 mosm). The P140 phosphopeptide was used in vivo at the dose of 4 mg/kg by intravenous (i.v.) routes. Control animals received equivalent volumes (2 ml/kg) of saline (Table 8).
Nine-week-old male Balb/c mice were sensitized by intranasal (i.n.) administration of HDM extract (Stallergenes): 1 μg in 25 μl saline on days 0, 1, 2, 3, 4, and 10 μg on days 14 and 21. Mice were challenged by i.n. administration of HDM (1 μg) and/or saline on days 28, 29 and 30. Mice were treated by i.v. injection (2 ml/kg) of P140 or solvent on day 25 (see FIG. 12).
Airway response to Methacholine (Flexivent®). On day 31, airway responses to PBS then methacholine were assessed using a forced oscillation technique (Flexivent®, SCIREQ, Montreal, Canada) as described (Daubeuf et al, Bioprotocol, 645, 2013). Mice were anesthetized with an intraperitoneal injection of xylasine (Rompun®; 1 mg/kg), followed fifteen minutes later by an intraperitoneal injection of pentobarbital sodium (3.64 mg/Kg). The trachea was exposed and an 18-gauge metal needle was inserted into the trachea. Airways were connected to a computer-controlled small animal ventilator, and quasi-sinusoidally ventilated with a tidal volume of 10 ml/Kg at a frequency of 150 breaths/min and a positive end-expiratory pressure of 2 cm H2O to achieve a mean respiratory volume close to that of spontaneous breathing. After baseline measurement, each mouse was challenged for 10 sec with an aerosol of PBS generated with an in-line nebulizer and administered directly through the ventilator. Then, aerosolized methacholine (MCh) at 50 mg/ml was administered for 10 sec. The effect of methacholine was calculated as the peak response, i.e. the mean of the three maximal values integrated for calculation of airway resistance (R, cm H20·s·mL^−1), elastance (E, cm H20·mL^−1) and compliance (C, mL·cm H20^−1).
All mice were sensitized to HDM on days 0, 1, 2, 3, 4, 14, 21, and challenged either with saline ([…]) or HDM (challenge with allergen). Results are presented as means±SEM. Differences between groups were tested for statistical significance using Student's t test for inflammatory cells and a two-way ANOVA followed by Bonferroni post-test for airway responses.

The next test has as its system MRL/lpr mice. Put plainly: Gougerot-Sjögren syndrome model, salivary glands of MRL/lpr mice. The class given is in vivo, mouse. On the procedure:
In this study MRL/lpr female 11-12 week old mice were used with 10 mice per group for statistical analysis. Each mouse received a single injection by retro-orbital, 100 μg of peptide P140 of 100 μl in […]. After 5 days, the mouse blood was collected in heparinized tube and salivary glands (GSS) were removed and placed in Eppendorf tubes containing PBS pH 7.4.
The number of foci site (FS) is determined for each mouse. A focus is defined as an aggregate of 50 or more cells.
The level of inflammation SG is determined semiquantitatively by a scoring system (0-3 scale): Grade 0: no inflammatory cells; Grade 1: few perivascular inflammatory and periductal Infiltrates (<100 cells); Grade 2: moderate number of perivascular inflammatory and periductal Infiltrates (100-500 cells); Grade 3: extensive inflammation with inflammatory foci broad (>500 cells).
Cells of total salivary glands stained with fluorescently were labeled antibodies for 40 min at 4° C., Were Collected data by FACSCalibur.
The weight of salivary glands Was Measured after-excision. DNase I (1 mg/ml) and collagenase D (50 μg/ml) were used to digest the salivary glands. Total cell counts were evaluated after the digestion.
The MRL/lpr mice (10 mice per arm) were injected with peptide P140 (100 μl/mouse iv). Five days after injection the mice were sacrificed and SGs collected as indicated above. The tissue was cut by the cryostat sections of 5 μm. The sections were labeled with hematoxylin/eosin staining is the method most frequently used in tissue histology. The level of inflammation and the number of FS were determined (FIGS. 17 and 18). Representative pictures are from sample control group 4 and group Treated sample (Bar 500 μm).

Setting [1] is: chronic asthma, methacholine 50 mg/ml, P140 i.v. 4 mg/kg day 25, p<0.05.
The mark [2] stands for this setting: HDM + P140 (HDM-challenged), first unlabelled sub-column (presumably PBS/baseline).
Where [3] appears, read: HDM + P140 (HDM-challenged), second unlabelled sub-column (presumably MCh 50 mg/mL).
Where [4] appears, read: P140, saline-challenged (chronic asthma), first unlabelled sub-column (presumably PBS/baseline).
Setting [5] is: P140, saline-challenged (chronic asthma), second unlabelled sub-column (presumably MCh 50 mg/mL).
Setting [6] is: 5 days after one single iv injection.
The mark [7] stands for this setting: 5 days after one single iv injection, flow cytometry.

For `CC[C@H](C)[C@H](NC(=O)[C@H](Cc1ccccc1)NC(=O)[C@H](C)NC(=O)[C@H](Cc1ccc(O)cc1)NC(=O)CNC(=O)[C@H](CCCNC(=N)N)NC(=O)[C@@H]1CCCN1C(=O)[C@H](CCCCN)NC(=O)CNC(=O)[C@H](COP(=O)(O)O)NC(=O)[C@H](CCCNC(=N)N)NC(=O)[C@H](CCCCN)NC(=O)[C@H](CO)NC(=O)[C@H](Cc1ccc(O)cc1)NC(=O)[C@@H](NC(=O)[C@H](CCSC)NC(=O)[C@H](Cc1c[nH]cn1)NC(=O)[C@@H](NC(=O)[C@@H](N)CCCNC(=N)N)[C@@H](C)CC)C(C)C)C(=O)N[C@@H](CCC(=O)O)C(=O)N[C@@H](Cc1ccc(O)cc1)C(=O)O` [Compound P140] (H-RIHMVYSKR[pS]GKPRGYAFIEY-OH; N-terminus and C-terminus assumed), the “Airway resistance, elastance or compliance (in words)” value with Balb/c mice (allergen (HDM)-challenged mice, compared to the solvent group) is reported as “no effect”. Also, the “Airway resistance, change vs solvent group” value in the test on Balb/c mice (chronic asthma, methacholine 50 mg/ml, P140 i.v. 4 mg/kg day 25, non-significant (n=5)) is on record as −42%. For the same compound, in the test with Balb/c mice (setting [1]), the “Airway compliance, change vs solvent group” value was “+115%” and the “Elastance, change vs solvent group” value is −65%. Also, in the test with Balb/c mice (setting [2]), the Crs is 0.0554 mL/cmH2O and 0.0514 mL/cmH2O and 0.0528 mL/cmH2O and 0.0566 mL/cmH2O and 0.0492 mL/cmH2O and 0.0458 mL/cmH2O and 0.0552 mL/cmH2O and 0.0589 mL/cmH2O; the Ers is 18.0582 cmH2O/mL and 19.4433 cmH2O/mL and 18.9515 cmH2O/mL and 17.6781 cmH2O/mL and 20.3326 cmH2O/mL and 21.8367 cmH2O/mL and 18.1106 cmH2O/mL and 16.9723 cmH2O/mL; the Rrs was 0.6405 cmH2O.s/mL and 0.6092 cmH2O.s/mL and 0.7972 cmH2O.s/mL and 0.5185 cmH2O.s/mL and 0.6804 cmH2O.s/mL and 0.6365 cmH2O.s/mL and 0.4744 cmH2O.s/mL and 0.5456 cmH2O.s/mL. In the test with Balb/c mice (setting [3]), the Crs was 0.0146 mL/cmH2O and 0.0075 mL/cmH2O and 0.0062 mL/cmH2O and 0.0065 mL/cmH2O and 0.0101 mL/cmH2O and 0.0060 mL/cmH2O and 0.0138 mL/cmH2O and 0.0081 mL/cmH2O; the Ers was 79.8018 cmH2O/mL and 148.4985 cmH2O/mL and 188.1151 cmH2O/mL and 219.9720 cmH2O/mL and 125.7688 cmH2O/mL and 173.4582 cmH2O/mL and 72.6033 cmH2O/mL and 131.8035 cmH2O/mL; the Rrs was 5.6421 cmH2O.s/mL and 10.3886 cmH2O.s/mL and 11.9654 cmH2O.s/mL and 10.5419 cmH2O.s/mL and 8.8810 cmH2O.s/mL and 13.0087 cmH2O.s/mL and 7.0705 cmH2O.s/mL and 9.7688 cmH2O.s/mL. Besides, in the test on Balb/c mice (P140, saline-challenged (chronic asthma)), the Rrs is 0.5590 cmH2O.s/mL and 0.8945 cmH2O.s/mL and 0.5926 cmH2O.s/mL and 0.8074 cmH2O.s/mL and 0.4418 cmH2O.s/mL. Besides, in the test on Balb/c mice (setting [4]), the Crs was 0.0545 mL/cmH2O and 0.0498 mL/cmH2O and 0.0569 mL/cmH2O and 0.0541 mL/cmH2O and 0.0650 mL/cmH2O; the Ers was 18.3671 cmH2O/mL and 20.0811 cmH2O/mL and 17.5777 cmH2O/mL and 18.4893 cmH2O/mL and 15.3975 cmH2O/mL. In the test with Balb/c mice (setting [5]), the Crs was 0.0304 mL/cmH2O and 0.0132 mL/cmH2O and 0.0380 mL/cmH2O and 0.0238 mL/cmH2O and 0.0370 mL/cmH2O; the Ers is 33.3720 cmH2O/mL and 84.9688 cmH2O/mL and 26.3200 cmH2O/mL and 42.4174 cmH2O/mL and 28.6047 cmH2O/mL; the Rrs is 4.1067 cmH2O.s/mL and 9.4002 cmH2O.s/mL and 2.2229 cmH2O.s/mL and 4.0926 cmH2O.s/mL and 2.1844 cmH2O.s/mL. Moreover, the “Baseline airway resistance, elastance and compliance after PBS inhalation (in words)” value with Balb/c mice (saline-challenged mice, i.v. 4 mg/kg day 25, compared to solvent-treated mice) is “no effect”. Besides, the “Lymphocytic infiltration in the SGs” value with MRL/lpr mice (5 days after one single administration, hematoxylin/eosin) was “significantly reduced”. Besides, in the test with MRL/lpr mice (setting [6]), the “Total number of cells present in the SGs” value is “no apparent effect” and the “Weight of SGs (salivary glands)” value was “no statistically significant effect”. For the same compound, in the test with MRL/lpr mice (setting [7]), the “CD4+T cells in SGs” value is “decreased” and the “Total number of B cells in SGs” value is “no statistically significant effect”.
